Results as given in patent US8003811B2, “Nitric oxide donor compounds” (Nicox S.A., priority 2008, dated 2011).

Key:
[1] = tested on: isolated rabbit thoracic aorta preparations; test: Assay on vascular tone: vasorelaxation in isolated aortic rings precontracted with noradrenaline; format: cell-based; details: for EC50: Oryctolagus cuniculus, read-out: EC50 (μM) ± sem
Procedure: The ability of the compounds of the invention to induce vasorelaxation in comparison to precursor compounds, was tested in vitro in isolated rabbit thoracic aorta preparations (Wanstall J. C. et al., Br. J. Pharmacol., 134:463-472, 2001). Male New Zealand rabbits were anaesthetized with thiopental-Na (50 mg/kg, iv), sacrificed by exsanguinations and then the thorax was opened and the aorta dissected. Aortic ring preparations (4 mm in length) were set up in physiological salt solution (PSS) at 37° C. in small organ chambers (5 ml). The composition of PSS was (mM): NaCl 130, NaHCO3 14.9, KH2PO4 1.2, MgSO4 1.2, HEPES 10, […] (95% O2/5% CO2; pH 7.4). Each ring was mounted under 2 g passive tension. Isometric tension was recorded with a Grass transducer (Grass FT03) attached to a BIOPAC MP150 System. Preparations were allowed to equilibrate for 1 h, and then contracted submaximally with noradrenaline (NA, 1 μM) and, when the contraction was stable, acetylcholine (ACh, 10 μM) was added. A relaxant response to ACh indicated the presence of a functional endothelium. […] When a stable precontraction was reached, a cumulative concentration-response curve to either of the vasorelaxant agents was obtained in the presence of a functional endothelium. Each arterial ring was exposed to only one combination of inhibitor and vasorelaxant. Moreover, the effect of the soluble guanylyl cyclase inhibitor ODQ (1-H-(1,2,4)-oxadiazol(4,3-a)quinoxalin-1-one) on vasorelaxation elicited by the compounds was examined preincubating the aortic rings with ODQ (10 μM) for 20 min.
Responses to relaxing agents are expressed as a percentage of residual contraction and plotted against concentration of test compound. EC50 values (where EC50 is the concentration producing 50% of the maximum relaxation to the test compound) were interpolated from these plots. During the experimental period, the plateau obtained with NA was stable without significant spontaneous loss of contraction in the aortic rings.
Furthermore, in experiments performed in the presence of ODQ (10 μM), the vasorelaxant responses to tested compounds were inhibited.

[2] = tested on: conscious spontaneously hypertensive rats (SHRs); test: Assay for antihypertensive activity (in vivo), telemetry; design: species or system rat; details: for Δ SBP in SHR (mmHg) 2-6 hrs / Δ SBP in SHR (mmHg) 21-24 hrs / Δ SBP in SHR (mmHg) 25-48 hrs / Δ SBP in SHR (mmHg) 12 hrs: delta versus own baseline
Procedure: Assay for Antihypertensive Activity (In Vivo)
The ability of the compounds of the invention to decrease blood pressure was evaluated in conscious spontaneously hypertensive rats (SHRs). SHRs (250-300 g) received a single oral dose of tested compounds. Systolic blood pressure (SBP) and heart rate were monitored by telemetry for […] after dosing. SBP was evaluated before (baseline) and at different time points (i.e. 2-6, 12, 21-24, 25-48 hours) following treatment by oral administration of the compounds. The data were processed both as the absolute value or as a delta between the absolute value and its own baseline.
The Dataquest IV telemetry system (Data Sciences International) was used for measurement of systolic pressure, diastolic pressure, mean arterial pressure, heart rate, and motor activity. The monitoring system consists of a transmitter (radio frequency transducer model TA11PA), receiver panel, consolidation matrix, and personal computer with accompanying software. Before the device was implanted, calibrations were verified to be accurate within ±3 mmHg. Rats were anesthetized with ketamine/xylazine/acepromazine, and the flexible catheter of the transmitter was surgically secured in the abdominal aorta just below the renal arteries. The transmitter was sutured subcutaneously. Rats were housed in individual cages after the operation. Each cage was placed over the receiver panel that was connected to the personal computer for data acquisition. The rats were unrestrained and free to move within their cages. Hemodynamic data were sampled every 2 minutes for 10 seconds.

[3] = tested on: Human Embryonic Kidney (HEK293) cell; test: cGMP accumulation assay; format: cell-based; details: intracellular cGMP, HEK293 cells, 30 min, with L-NAME, IBMX 100 μM and BAY 41-2272 1 μM
Procedure: The ability of the compounds of the invention to increase intracellular cGMP in comparison to vehicle was tested in vitro in Human Embryonic Kidney (HEK293) cell preparations. The method followed was as that reported in literature with minor modifications (Ongini et al., PNAS 2004; 101(22):8497-502. Ronchetti et al., Eur J. Pharmacol. 2006; 532(1-2):162-9).
Briefly, HEK293 cells were washed once with Hank's Balance Salt Solution (HESS) supplemented with HEPES (10 mM), MgCl2 (5 mM) and 0.05% ascorbic acid. Then they were pre-incubated for 20 min with a nitric oxide synthase inhibitor, N-nitro-L-arginine methyl ester (L-NAME) (300 μM) so to lower endogenous NO production. The cells were then exposed for 30 min to either vehicle (DMSO 1%) or increasing concentrations of test compounds (up to 100 μM) in presence of the phosphodiesterase inhibitor, 3-isobutyl-1-methylxanthine (IBMX, 100 μM) and the NO-independent activator/modulator of soluble guanylyl-cyclase, BAY 41-2272 (1 μM). The reaction was ended by the removal of the incubating buffer and the addition of 50 μl/well of 100% ice-cold ethanol. The plate was then dried under hot air steam and the cell residues dissolved, extracted and analysed using commercially available cyclic GMP enzyme immunoassay kit (Cayman Chemical, Ann Arbor, Mich., U.S.A.). Data obtained with the compounds of the present invention, expressed as % of vehicle at their respective maximal concentration (100 μM), are reported in Table 2.

[4] = vasorelaxation of rabbit aortic rings precontracted with noradrenaline 1 μM, functional endothelium

Compound | EC50 [1, 4] [µM] | % of vehicle (mean ± sem at 100 μM) [3] | also measured
O[C@@H]1CO[C@H]2[C@@H]1OC[C@H]2O [Isomannide, 1,4:3,6-dianhydro-D-mannitol, reference compound] | – | – | relaxation (concentration-response curve) ([1]; rabbit aortic rings precontracted with noradrenaline, result in words): does not produce relaxation at any of the concentration tested; EC50 (μM) ± sem [1, 4]: no effect; Δ SBP in SHR (mmHg) 2-6 hrs ([2]; single oral dose 2.4 mpk): −3 mmHg; Δ SBP in SHR (mmHg) 21-24 hrs ([2]; single oral dose 2.4 mpk): −6 mmHg; Δ SBP in SHR (mmHg) 25-48 hrs ([2]; single oral dose 2.4 mpk): −6 mmHg; Δ SBP in SHR (mmHg) 12 hrs ([2]; single oral dose 2.4 mpk): −9 mmHg
O=C(CCCC(CO[N+](=O)[O-])O[N+](=O)[O-])O[C@@H]1CO[C@H]2[C@@H]1OC[C@H]2O (stereo partly drawn) [Example 1, (3R,3aR,6R,6aR)-6-hydroxyhexahydrofuro[3,2-b]furan-3-yl 5,6-bis(nitrooxy)hexanoate] | 0.11 ± 0.03 | 1029.6 ± 80.2 % of vehicle | BP lowering compared to precursor compound (isomannide) ([2]; SHR, single oral dose, result in words): BP lowering with extended peak effect and duration of action; Δ SBP in SHR (mmHg) 2-6 hrs ([2]; single oral dose 4.4 mpk): −13 mmHg; Δ SBP in SHR (mmHg) 21-24 hrs ([2]; single oral dose 4.4 mpk): −20 mmHg; Δ SBP in SHR (mmHg) 25-48 hrs ([2]; single oral dose 4.4 mpk): −16 mmHg; Δ SBP in SHR (mmHg) 12 hrs ([2]; single oral dose 4.4 mpk): −16 mmHg
CC(C)(CCOC(=O)O[C@@H]1CO[C@H]2[C@@H]1OC[C@H]2O)CC(CO[N+](=O)[O-])O[N+](=O)[O-] (stereo partly drawn) [Example 8, 3,3-dimethyl-5,6-bis(nitrooxy)hexyl (3R,3aR,6R,6aR)-6-hydroxyhexahydrofuro[3,2-b]furan-3-yl carbonate] | 0.06 ± 0.01 | 564 ± 59.0 % of vehicle | –
O=C(CCCCCO[N+](=O)[O-])O[C@@H]1CO[C@H]2[C@@H]1OC[C@H]2OC(=O)CCCCCO[N+](=O)[O-] [Example 2, (3R,3aR,6R,6aR)-hexahydrofuro[3,2-b]furan-3,6-diyl bis(6-(nitrooxy)hexanoate)] | 3.1 ± 0.9 | 1082.67 ± 163.4 % of vehicle | –
O=C(O[C@@H]1CO[C@H]2[C@@H]1OC[C@H]2O)N1CCC(O[N+](=O)[O-])CC1 [Example 7, (3R,3aR,6R,6aR)-6-hydroxyhexahydrofuro[3,2-b]furan-3-yl 4-(nitrooxy)piperidine-1-carboxylate] | 4.4 ± 1.9 | – | –
O=C(CCOCC(CO[N+](=O)[O-])O[N+](=O)[O-])O[C@@H]1CO[C@H]2[C@@H]1OC[C@H]2O (stereo partly drawn) [Example 13, (3R,3aR,6R,6aR)-6-hydroxyhexahydrofuro[3,2-b]furan-3-yl 3-(2,3-bis(nitrooxy)propoxy)propanoate] | 0.1 ± 0.03 | 683 ± 86.3 % of vehicle | –
O=C(CCC[C@@H](CO[N+](=O)[O-])O[N+](=O)[O-])O[C@@H]1CO[C@H]2[C@@H]1OC[C@H]2O [Example 4] | 0.11 ± 0.02 | 986.3 ± 90.0^ % of vehicle | –
O=[N+]([O-])OCC(CCCCO[C@@H]1CO[C@H]2[C@@H]1OC[C@H]2O)O[N+](=O)[O-] (stereo partly drawn) [Example 6, 6-((3R,3aR,6R,6aR)-6-hydroxyhexahydrofuro[3,2-b]furan-3-yloxy)hexane-1,2-diyl dinitrate] | 0.91 ± 0.33 | 1620 ± 205.0 % of vehicle | –
O=C(CCC[C@H](CO[N+](=O)[O-])O[N+](=O)[O-])O[C@@H]1CO[C@H]2[C@@H]1OC[C@H]2O [Example 5, (R)-((3R,3aR,6R,6aR)-6-hydroxyhexahydrofuro[3,2-b]furan-3-yl) 5,6-bis(nitrooxy)hexanoate] | – | 668 ± 64.7 % of vehicle | –
O=C(CCCCCO[N+](=O)[O-])O[C@@H]1CO[C@H]2[C@@H]1OC[C@H]2O [Example 3, (3R,3aR,6R,6aR)-6-hydroxyhexahydrofuro[3,2-b]furan-3-yl 6-(nitrooxy)hexanoate] | 2.5 ± 0.6 | 677.83 ± 79.6 % of vehicle | –
